Results as given in PubChem BioAssay AID2060890 (Molecular Pharmacology Branch, DTP, NCI, 2025).
Where “and” joins values, the source holds several entries; their conditions need not be identical. Equal values may be shown once.

Test system: LG0703-F948-PDC complex spheroid viability
Experiment: Anticancer human tumor LG0703-F948-PDC patient-derived lung adenocarcinoma cell line growth inhibition [RAS]
Settings: for viability, T/C: stronger effect = lower value
Outline: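 Multi-cell-type spheroids: tumor cells plus HUVEC endothelial cells and mesenchymal stem cells. RAS-pathway inhibitors were combined with targeted agents, each dosed in half-log steps down from clinical Cmax, or from 10 microM when Cmax was unknown.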

[1] = curve of first compound, second compound 0.000949 µM
[2] = curve of first compound, second compound 0.003 µM
[3] = curve of first compound, second compound 0.00949 µM
[4] = curve of first compound, second compound 0.03 µM
[5] = curve of first compound, second compound 0.0949 µM
[6] = curve of first compound, second compound 0.3 µM
[7] = second compound 0.000949 µM, first compound 0.0316 µM
[8] = second compound 0.000949 µM, first compound 0.1 µM
[9] = second compound 0.000949 µM, first compound 0.316 µM
[10] = second compound 0.000949 µM, first compound 1 µM
[11] = second compound 0.000949 µM, first compound 3.16 µM
[12] = second compound 0.000949 µM, first compound 10 µM
[13] = second compound 0.003 µM, first compound 0.0316 µM
[14] = second compound 0.003 µM, first compound 0.1 µM
[15] = second compound 0.003 µM, first compound 0.316 µM
[16] = second compound 0.003 µM, first compound 1 µM
[17] = second compound 0.003 µM, first compound 3.16 µM
[18] = second compound 0.003 µM, first compound 10 µM
[19] = second compound 0.00949 µM, first compound 0.0316 µM
[20] = second compound 0.00949 µM, first compound 0.1 µM
[21] = second compound 0.00949 µM, first compound 0.316 µM
[22] = second compound 0.00949 µM, first compound 1 µM
[23] = second compound 0.00949 µM, first compound 3.16 µM
[24] = second compound 0.00949 µM, first compound 10 µM
[25] = second compound 0.03 µM, first compound 0.0316 µM
[26] = second compound 0.03 µM, first compound 0.1 µM
[27] = second compound 0.03 µM, first compound 0.316 µM
[28] = second compound 0.03 µM, first compound 1 µM
[29] = second compound 0.03 µM, first compound 3.16 µM
[30] = second compound 0.03 µM, first compound 10 µM
[31] = second compound 0.0949 µM, first compound 0.0316 µM
[32] = second compound 0.0949 µM, first compound 0.1 µM
[33] = second compound 0.0949 µM, first compound 0.316 µM
[34] = second compound 0.0949 µM, first compound 1 µM
[35] = second compound 0.0949 µM, first compound 3.16 µM
[36] = second compound 0.0949 µM, first compound 10 µM
[37] = second compound 0.3 µM, first compound 0.0316 µM
[38] = second compound 0.3 µM, first compound 0.1 µM
[39] = second compound 0.3 µM, first compound 0.316 µM
[40] = second compound 0.3 µM, first compound 1 µM
[41] = second compound 0.3 µM, first compound 3.16 µM
[42] = second compound 0.3 µM, first compound 10 µM
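Further: spheroids exposed to agents for 7 days.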
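Wherever viability, T/C is given: 100% = DMSO vehicle wells.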

Question: For `C[C@@H](NC(=O)c1ncnc(N)c1Cl)c1ncc(C(=O)Nc2cc(C(F)(F)F)c(Cl)cn2)s1` + CCn1c(-c2cccnc2C(C)OC)c2c3cc(ccc31)N1CCOC(CC(NC(=O)C(C(C)C)N(C)C(=O)C3(F)CCN(C(=O)C#CC(C)(C)N(C)C)CC3)C(=O)N3CCCC(N3)C(=O)OCC(C)(C)C2)C1, which IC50 [1] is on record?
Answer: > 10000 nM

Question: And the IC50 [2]?
Answer: > 10000 nM

Question: What about the IC50 [3] of the same compound?
Answer: > 10000 nM

Question: And the IC50 [4]?
Answer: > 10000 nM

Question: And the IC50 [5]?
Answer: > 10000 nM

Question: What about the IC50 [6] of the same compound?
Answer: < 31.6 nM

Question: What about the viability, T/C [7] of the same compound?
Answer: 87.6%

Question: And the viability, T/C [8]?
Answer: 106%

Question: And the viability, T/C [9]?
Answer: 118%

Question: And the viability, T/C [10]?
Answer: 110%

Question: And the viability, T/C [11]?
Answer: 102%

Question: And the viability, T/C [12]?
Answer: 90.1%

Question: What about the viability, T/C [13] of the same compound?
Answer: 106%

Question: What about the viability, T/C [14] of the same compound?
Answer: 102%

Question: And the viability, T/C [15]?
Answer: 85.5%

Question: And the viability, T/C [16]?
Answer: 113%

Question: And the viability, T/C [17]?
Answer: 103%

Question: And the viability, T/C [18]?
Answer: 105%

Question: And the viability, T/C [19]?
Answer: 94.1%

Question: And the viability, T/C [20]?
Answer: 108%

Question: What about the viability, T/C [21] of the same compound?
Answer: 91%

Question: And the viability, T/C [22]?
Answer: 103%

Question: What about the viability, T/C [23] of the same compound?
Answer: 92.3%

Question: What about the viability, T/C [24] of the same compound?
Answer: 87.7%

Question: And the viability, T/C [25]?
Answer: 99.6%

Question: What about the viability, T/C [26] of the same compound?
Answer: 105%

Question: What about the viability, T/C [27] of the same compound?
Answer: 88.4%

Question: And the viability, T/C [28]?
Answer: 97%

Question: What about the viability, T/C [29] of the same compound?
Answer: 107%

Question: And the viability, T/C [30]?
Answer: 82.2%

Question: What about the viability, T/C [31] of the same compound?
Answer: 74.4%

Question: What about the viability, T/C [32] of the same compound?
Answer: 71.1%

Question: What about the viability, T/C [33] of the same compound?
Answer: 81.7%

Question: And the viability, T/C [34]?
Answer: 78.3%

Question: What about the viability, T/C [35] of the same compound?
Answer: 88.4%

Question: And the viability, T/C [36]?
Answer: 65.9%

Question: And the viability, T/C [37]?
Answer: 43.5%

Question: What about the viability, T/C [38] of the same compound?
Answer: 42.9%

Question: What about the viability, T/C [39] of the same compound?
Answer: 48.6%

Question: And the viability, T/C [40]?
Answer: 54%

Question: What about the viability, T/C [41] of the same compound?
Answer: 48.1%

Question: What about the viability, T/C [42] of the same compound?
Answer: 37.5%

Question: `NC1c2ccccc2OC12CCN(c1cnc3c(N4CCCc5ncccc54)n[nH]c3n1)CC2` (configuration not stated) was tested. Which viability, T/C (compound 0.0316 µM) did it give?
Answer: 50.5% [middle of 4 runs]

Question: And the viability, T/C (compound 0.1 µM)?
Answer: 31.6% [middle of 4 runs]

Question: And the viability, T/C (compound 0.316 µM)?
Answer: 20.4% [middle of 4 runs]

Question: What about the viability, T/C (compound 1 µM) of the same compound?
Answer: 13.1% [middle of 4 runs]

Question: What about the viability, T/C (compound 3.16 µM) of the same compound?
Answer: 5.94% [middle of 4 runs]

Question: What about the viability, T/C (compound 10 µM) of the same compound?
Answer: 2.92% [middle of 4 runs]

Question: What about the IC50 (curve of compound) of the same compound?
Answer: < 31.6 nM and 59 nM

Question: `C[C@@H](NC(=O)c1ncnc(N)c1Cl)c1ncc(C(=O)Nc2cc(C(F)(F)F)c(Cl)cn2)s1` was tested. Which viability, T/C (compound 0.0316 µM) did it give?
Answer: 102% and 115% and 92.8%

Question: What about the viability, T/C (compound 0.1 µM) of the same compound?
Answer: 120% [middle of 4 runs]

Question: And the viability, T/C (compound 0.316 µM)?
Answer: 103% [middle of 4 runs]

Question: What about the viability, T/C (compound 1 µM) of the same compound?
Answer: 114% [middle of 4 runs]

Question: What about the viability, T/C (compound 3.16 µM) of the same compound?
Answer: 102% [middle of 4 runs]

Question: What about the IC50 (curve of compound) of the same compound?
Answer: > 10000 nM

Question: `CC(C)NCC(C(=O)N1CCN(c2ncnc3c2C(C)CC3O)CC1)c1ccc(Cl)cc1` (configuration not stated) + CCn1c(-c2cccnc2C(C)OC)c2c3cc(ccc31)N1CCOC(CC(NC(=O)C(C(C)C)N(C)C(=O)C3(F)CCN(C(=O)C#CC(C)(C)N(C)C)CC3)C(=O)N3CCCC(N3)C(=O)OCC(C)(C)C2)C1 was tested. Which IC50 [1] did it give?
Answer: 1800 nM

Question: And the IC50 [2]?
Answer: 2750 nM

Question: And the IC50 [3]?
Answer: 858 nM

Question: And the IC50 [4]?
Answer: 1420 nM

Question: What about the IC50 [5] of the same compound?
Answer: 511 nM

Question: And the IC50 [6]?
Answer: < 31.6 nM

Question: And the viability, T/C [7]?
Answer: 103%

Question: What about the viability, T/C [8] of the same compound?
Answer: 86%

Question: What about the viability, T/C [9] of the same compound?
Answer: 73.6%

Question: And the viability, T/C [10]?
Answer: 51.9%

Question: And the viability, T/C [11]?
Answer: 47.4%

Question: And the viability, T/C [12]?
Answer: 35.6%

Question: And the viability, T/C [13]?
Answer: 104%

Question: And the viability, T/C [14]?
Answer: 79.8%

Question: And the viability, T/C [15]?
Answer: 77.9%

Question: What about the viability, T/C [16] of the same compound?
Answer: 56.3%

Question: And the viability, T/C [17]?
Answer: 50.8%

Question: What about the viability, T/C [18] of the same compound?
Answer: 38.4%

Question: What about the viability, T/C [19] of the same compound?
Answer: 100%

Question: What about the viability, T/C [20] of the same compound?
Answer: 98%

Question: And the viability, T/C [21]?
Answer: 65.5%

Question: What about the viability, T/C [22] of the same compound?
Answer: 49%

Question: What about the viability, T/C [23] of the same compound?
Answer: 52.5%

Question: What about the viability, T/C [24] of the same compound?
Answer: 39.3%

Question: And the viability, T/C [25]?
Answer: 99.3%

Question: And the viability, T/C [26]?
Answer: 86.4%

Question: What about the viability, T/C [27] of the same compound?
Answer: 67.9%

Question: What about the viability, T/C [28] of the same compound?
Answer: 53.3%

Question: And the viability, T/C [29]?
Answer: 43.1%

Question: What about the viability, T/C [30] of the same compound?
Answer: 35.1%

Question: What about the viability, T/C [31] of the same compound?
Answer: 74.8%

Question: And the viability, T/C [32]?
Answer: 66%

Question: And the viability, T/C [33]?
Answer: 51.3%

Question: What about the viability, T/C [34] of the same compound?
Answer: 42.4%

Question: And the viability, T/C [35]?
Answer: 42.5%

Question: And the viability, T/C [36]?
Answer: 28.9%

Question: And the viability, T/C [37]?
Answer: 46.8%

Question: And the viability, T/C [38]?
Answer: 38.6%

Question: What about the viability, T/C [39] of the same compound?
Answer: 33.6%

Question: What about the viability, T/C [40] of the same compound?
Answer: 23.8%

Question: And the viability, T/C [41]?
Answer: 27.4%

Question: What about the viability, T/C [42] of the same compound?
Answer: 15.5%
